# Measured values published in PubChem BioAssay (NCI).
#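 Following 48 hours of exposure in 96-well plates, responses at five concentrations were used to interpolate endpoints linearly. TGI marks complete inhibition of growth.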
# Legend:
# Experiment in all cases: NCI tumour cell line growth inhibition, 48 h
# KM12 colon = system: KM12 colon
# RPMI-8226 leukemia = system: RPMI-8226 leukemia
# UACC-257 melanoma = system: UACC-257 melanoma
# MALME-3M melanoma = system: MALME-3M melanoma
# COLO 205 colon = system: COLO 205 colon
# RXF 393 renal = system: RXF 393 renal
# SK-MEL-5 melanoma = system: SK-MEL-5 melanoma
# DU-145 prostate = system: DU-145 prostate
# MDA-N = system: MDA-N
# MDA-MB-231 breast = system: MDA-MB-231 breast
Compound,TGI (KM12 colon) [µM],TGI (RPMI-8226 leukemia) [µM],TGI (UACC-257 melanoma) [µM],TGI (MALME-3M melanoma) [µM],TGI (COLO 205 colon) [µM],TGI (RXF 393 renal) [µM],TGI (SK-MEL-5 melanoma) [µM],TGI (DU-145 prostate) [µM],TGI (MDA-N) [µM],TGI (MDA-MB-231 breast) [µM]
CCCC(C(=O)OC)C1N=C(NC#N)N(Cc2ccccc2)C1=O (stereo not given),> 100,> 100,> 100,> 100,> 100,> 100,> 100,–,–,–
COC(=O)[C@H](Cc1ccccc1)NC(=O)N(CCNC(=O)OC(C)(C)C)c1ccccc1,> 100,> 100,–,> 100,> 100,> 100,> 100,> 100,> 100,> 100
O=C1N[C@H](C(=O)O)[C@@H](c2ccc(OCc3ccccc3)cc2)O1,> 100,> 100,> 100,> 100,> 100,32.1,> 100,> 100,> 100,51.4
COc1ccc(C=O)cc1OS(=O)(=O)C(F)(F)C(F)(F)C(F)(F)C(F)(F)F,> 74.4,54.3,> 100,> 69,62.4,59.8,30.8,> 100,44.7,> 70.3
OC(Cc1cc(CC(O)(C(F)(F)F)C(F)(F)F)nc(CC(O)(C(F)(F)F)C(F)(F)F)c1)(C(F)(F)F)C(F)(F)F,2.42,> 10,5.26,7.96,2.14,4.57,2.84,7.09,4.09,3.68
CC(C)C(CCOS(=O)(=O)O)CCC(C)[C@H]1[C@@H](O)C(O)C2[C@]3(O)C[C@@H](O)C4(O)C[C@@H](O)CC[C@]4(C)C3CC[C@@]21C (stereo not given in full),> 100,> 100,–,> 100,> 100,> 100,> 100,–,–,–
CC1CCc2c(sc3ncnc(N/N=C/c4ccc(Cl)cc4)c23)C1 (stereo not given),–,> 100,70.3,> 100,> 100,91.2,37.2,–,–,–
OCC1OC(n2cnc3c(Cl)nc(Nc4ccc(Cl)c(Cl)c4)nc32)CC1O (stereo not given),17.7,29.4,20,21.2,20.5,19.5,16.9,48.6,–,23.5
CC1(C)[C@H]2Cc3cc4nc5ccccn5c4cc3[C@@H]1C2,36.7,69.3,34.2,25.7,34.7,–,34.3,41,33.4,27.1
Cc1ccc(-c2cc(=O)c(=O)[nH][nH]2)cc1,> 100,–,> 100,–,> 100,> 100,> 100,> 100,> 100,> 100
CC(N)C(C)c1ccccc1 (stereo not given),> 100,> 100,> 100,> 100,> 100,> 100,> 100,–,–,–
Cc1cc(=O)oc2c(C)c3oc(CBr)cc3cc12,42.1,42.6,52.5,40.3,34.2,–,26,> 100,40.9,84.7
